Measurements taken from patent US20230066011A1, “PYRROLOPYRIMIDINE DERIVATIVE, AND PHARMACEUTICAL COMPOSITION FOR PREVENTING OR TREATING PROTEIN KINASE-RELATED DISEASE COMPRISING SAME AS ACTIVE INGREDIENT” (VORONOI CO., LTD., priority 2019, published 2023).

Assays:
Assay type in all cases: biochemical
LRRK2 (G2019S) = LRRK2 (G2019S) (Homo sapiens, UniProt Q5S007, G2019S); experiment: LRRK2 G2019S enzyme inhibition, ADP-Glo kinase assay; parameters: purchased SignalChem L10-12GG; details: ATP 25 μM
LRRK2 (G2019S), sequence (Q5S007 970-2527 G2019S limits assumed): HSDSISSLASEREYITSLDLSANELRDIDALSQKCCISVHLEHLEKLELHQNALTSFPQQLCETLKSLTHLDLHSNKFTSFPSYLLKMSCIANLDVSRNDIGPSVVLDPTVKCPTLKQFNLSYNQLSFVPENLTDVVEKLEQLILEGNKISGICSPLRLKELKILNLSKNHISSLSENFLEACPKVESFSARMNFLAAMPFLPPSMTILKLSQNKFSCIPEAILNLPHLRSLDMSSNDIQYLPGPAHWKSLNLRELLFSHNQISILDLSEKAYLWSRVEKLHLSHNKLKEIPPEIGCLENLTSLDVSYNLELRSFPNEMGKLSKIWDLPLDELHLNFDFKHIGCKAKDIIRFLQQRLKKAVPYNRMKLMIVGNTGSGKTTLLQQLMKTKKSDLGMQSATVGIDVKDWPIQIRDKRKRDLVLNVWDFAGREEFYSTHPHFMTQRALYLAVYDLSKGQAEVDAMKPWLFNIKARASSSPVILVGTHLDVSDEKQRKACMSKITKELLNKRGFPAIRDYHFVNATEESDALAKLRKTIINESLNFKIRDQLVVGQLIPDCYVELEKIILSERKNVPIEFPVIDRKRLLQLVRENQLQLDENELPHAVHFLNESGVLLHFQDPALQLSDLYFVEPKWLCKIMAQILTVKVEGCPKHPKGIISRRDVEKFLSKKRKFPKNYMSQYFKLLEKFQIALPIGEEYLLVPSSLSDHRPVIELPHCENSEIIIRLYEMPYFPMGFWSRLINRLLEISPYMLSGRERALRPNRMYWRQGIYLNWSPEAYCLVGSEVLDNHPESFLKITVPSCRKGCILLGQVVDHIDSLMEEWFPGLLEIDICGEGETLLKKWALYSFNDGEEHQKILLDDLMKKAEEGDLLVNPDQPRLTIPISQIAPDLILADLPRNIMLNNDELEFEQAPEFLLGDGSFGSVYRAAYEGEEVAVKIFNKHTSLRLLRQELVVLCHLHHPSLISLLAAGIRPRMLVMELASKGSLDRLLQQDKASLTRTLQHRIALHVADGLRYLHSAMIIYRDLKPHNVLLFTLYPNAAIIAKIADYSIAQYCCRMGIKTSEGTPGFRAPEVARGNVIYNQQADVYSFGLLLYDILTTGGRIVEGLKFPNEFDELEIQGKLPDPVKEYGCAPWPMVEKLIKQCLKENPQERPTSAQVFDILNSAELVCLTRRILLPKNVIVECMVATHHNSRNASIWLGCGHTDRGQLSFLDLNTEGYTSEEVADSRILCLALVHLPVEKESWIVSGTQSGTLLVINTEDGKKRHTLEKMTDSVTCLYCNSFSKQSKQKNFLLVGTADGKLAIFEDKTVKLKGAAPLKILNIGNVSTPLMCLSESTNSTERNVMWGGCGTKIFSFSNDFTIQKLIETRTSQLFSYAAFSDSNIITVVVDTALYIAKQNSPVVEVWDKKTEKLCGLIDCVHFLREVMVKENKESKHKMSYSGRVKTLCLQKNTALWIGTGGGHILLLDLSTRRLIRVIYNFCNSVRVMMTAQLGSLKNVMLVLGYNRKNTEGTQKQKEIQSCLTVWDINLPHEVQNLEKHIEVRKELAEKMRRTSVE
Procedure, shortened: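 Purified human LRRK2 G2019S (16 ng) with 25 μM ATP and 0.2 μg substrate, 2 h at 25° C. in Tris-HCl pH 7.4, MgCl2, BSA, DTT buffer; compounds at 12 final concentrations, 50 μM down to 0.000001024 μM. ADP-Glo luminescence versus solvent control gave IC50.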

human GST-CLK1 = molecular target: T1, human GST-CLK1 (Homo sapiens, UniProt P49759); experiment: GST-CLK1 enzyme inhibition, ADP-Glo kinase assay; details: ATP 10 μM, GST-CLK1 129-end
T1 construct: purified human GST-CLK1 (129-end, SignalChem) enzyme; purchased SignalChem
T1 sequence (P49759 129-484 limits assumed): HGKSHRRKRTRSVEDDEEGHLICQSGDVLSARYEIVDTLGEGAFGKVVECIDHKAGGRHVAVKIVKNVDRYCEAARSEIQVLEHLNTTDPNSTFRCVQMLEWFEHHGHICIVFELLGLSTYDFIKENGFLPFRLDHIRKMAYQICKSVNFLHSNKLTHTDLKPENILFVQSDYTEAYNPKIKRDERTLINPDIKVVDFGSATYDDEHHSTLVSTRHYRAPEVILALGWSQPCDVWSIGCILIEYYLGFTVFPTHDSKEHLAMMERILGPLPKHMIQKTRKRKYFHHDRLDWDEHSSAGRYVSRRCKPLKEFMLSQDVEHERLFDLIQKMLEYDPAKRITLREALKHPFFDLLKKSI
Procedure, shortened: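 Human GST-CLK1 (129-end, 3 ng) reacted with substrate and 10 μM ATP for 1 h at 25° C in 40 mM Tris-HCl pH 7.4, 20 mM MgCl2, 0.5 mg/mL BSA, 50 μM DTT. ADP-Glo luminescence was normalised to solvent control; IC50 (nM) from 3 data sets.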

human GST-DYRK1A = molecular target: T2, human GST-DYRK1A (Homo sapiens, UniProt Q13627); experiment: GST-DYRK1A enzyme inhibition, ADP-Glo kinase assay; details: ATP 10 μM, GST-DYRK1A full length, read-out: DYRK1 IC50
T2 construct: purified human GST-DYRK1A (full length, Thermo Scientifics) enzyme; purchased Thermo Scientifics
Procedure, shortened: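 Full-length human GST-DYRK1A (10 ng) with 10 μM ATP and specific substrate in 40 mM Tris-HCl pH 7.4, 20 mM MgCl2, 0.5 mg/mL BSA, 50 μM DTT, 1 h at 25 °C. ADP formation read by ADP-Glo luminescence relative to solvent control; IC50 from three data sets.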

LRRK2 = LRRK2 (Homo sapiens, UniProt Q5S007); experiment: LRRK2 enzyme inhibition, ADP-Glo kinase assay; parameters: purchased Invitrogen PR8604B; details: ATP 10 μM
LRRK2, sequence (Q5S007 970-2527 limits assumed): as the sequence (Q5S007 970-2527 G2019S limits assumed) above, with S1050G counted along it
Description: To evaluate an inhibitory activity of the compound according to the present invention against LRRK2, LRRK2 (G2019S), DYRK1, CLK1, and TTK kinases, experiments were performed as follows.
Each of the Example compounds was reacted with a purified human LRRK2 (Invitrogen #PR8604B) enzyme to evaluate an ability to inhibit an enzyme using a method as described below. A composition of 40 mM Tris-HCl (pH 7.4), 20 mM MgCl2, 0.5 mg/mL BSA, and 50 μM DTT was used as a reaction buffer, and all reactions of test substances were performed in the reaction buffer. Each of the compounds was diluted […] from a 10 mM DMSO stock using a serial dilution method, and enzyme activities were measured at final compound concentrations of 50, 10, 2, 0.4, 0.08, 0.016, 0.0032, 0.00064, 0.000128, 0.0000256, 0.00000512, and 0.000001024 μM. In the test, purified ATP (10 μM) and an enzyme substrate (0.2 μg) were reacted with a human LRRK2 (25 ng) enzyme at 25° C. for 2 hours, and the enzyme activities were determined using an in vitro ADP-Glo™ kinase assay (Promega). An enzyme-activity reaction solution, an ADP-Glo reaction solution, and an enzyme-ability detection solution were reacted at a ratio of 2:2:1 to measure a degree of inhibition of the enzyme activity with luminescence. The degree of inhibition of the enzyme activity according to the treatment concentration of each of the compounds was calculated based on the fluorescence of the enzyme activity of the solvent control which was not treated with the compound. In this case, the concentration of each of the compounds inhibiting 50% of the enzyme activity was determined to be an IC50 (nM) value, and calculated using Prism (Version 5.01; GraphPad) software.

SMILES | IC50 (LRRK2 (G2019S)) [nM] | IC50 (human GST-CLK1) [nM] | IC50 (human GST-DYRK1A) [nM] | IC50 (LRRK2) [nM]
N#Cc1c[nH]c2nc(Nc3ccc(C(=O)N4CCOCC4)c4c3OCCO4)nc(NC3CCC3)c12 [Example 125, 4-(cyclobutylamino)-2-((8-(morpholine-4-carbonyl)-2,3-dihydrobenzo[b][1,4]dioxin-5-yl)amino)-7H-pyrrolo[2,3-d]pyrimidine-5-carbonitrile] | < 100 | 101 to 300 | 301 to 1000 | < 100
COCC(C)(C)Nc1nc(Nc2ccc(S(C)(=O)=O)cc2OC)nc2[nH]cc(C(F)(F)F)c12 [Example 177, N^4-(1-methoxy-2-methylpropan-2-yl)-N^2-(2-methoxy-4-(methylsulfonyl)phenyl)-5-(trifluoromethyl)-7H-pyrrolo[2,3-d]pyrimidine-2,4-diamine] | 301 to 1000 | 301 to 1000 | 301 to 1000 | 301 to 1000
COc1cc(S(C)(=O)=O)ccc1Nc1nc(NC2CCC2)c2c(C#N)c[nH]c2n1 [Example 105, 4-(cyclobutylamino)-2-((2-methoxy-4-(methylsulfonyl)phenyl)amino)-7H-pyrrolo[2,3-d]pyrimidine-5-carbonitrile] | < 100 | 301 to 1000 | 301 to 1000 | < 100
N#Cc1c[nH]c2nc(Nc3ccc(C(=O)N4CCOCC4)c4c3OCCO4)nc(NCC3CC3)c12 [Example 130, 4-((cyclopropylmethyl)amino)-2-((8-(morpholine-4-carbonyl)-2,3-dihydrobenzo[b][1,4]dioxin-5-yl)amino)-7H-pyrrolo[2,3-d]pyrimidine-5-carbonitrile] | < 100 | 301 to 1000 | 301 to 1000 | < 100
CCCNc1nc(Nc2ccc(C(=O)N3CCC(N4CCOCC4)CC3)c3c2OCCO3)nc2[nH]cc(C(F)(F)F)c12 [Example 364, (4-morpholino-piperidin-1-yl)(8-((4-(propylamino)-5-(trifluoromethyl)-7H-pyrrolo[2,3-d]pyrimidin-2-yl)amino)-2,3-dihydrobenzo[b] [1,4]dioxin-5-yl)methanone] | < 100 | < 100 | < 100 | < 100
COCCNc1nc(Nc2ccc(S(C)(=O)=O)cc2OC)nc2[nH]cc(C#N)c12 [Example 103, 2-((2-methoxy-4-(methylsulfonyl)phenyl)amino)-4-((2-methoxyethyl)amino)-7H-pyrrolo[2,3-d]pyrimidine-5-carbonitrile] | < 100 | 301 to 1000 | 301 to 1000 | < 100
C=CCNc1nc(Nc2ccc(S(=O)(=O)N3CCC(N4CCOCC4)CC3)cc2OC)nc2[nH]ccc12 [Example 247, N4-allyl-N2-(2-methoxy-4-((4-morpholinopiperidin-1-yl)sulfonyl)phenyl)-7H-pyrrolo[2,3-d]pyrimidine-2,4-diamine] | < 100 | 301 to 1000 | 301 to 1000 | < 100
N#Cc1c[nH]c2nc(Nc3ccc(C(=O)N4CCC(N5CCOCC5)CC4)c4c3OCCO4)nc(NC3CCCCC3)c12 [Example 251, 4-(cyclohexylamino)-2-((8-(4-morpholinopiperidine-1-carbonyl)-2,3-dihydrobenzo[b][1,4]dioxin-5-yl)amino)-7H-pyrrolo[2,3-d]pyrimidine-5-carbonitrile] | < 100 | 301 to 1000 | 301 to 1000 | < 100
CNc1nc(Nc2ccc(S(C)(=O)=O)cc2OC)nc2[nH]cc(C#N)c12 [Example 257, 2-((2-methoxy-4-(methylsulfonyl)phenyl)amino)-4-(methylamino)-7H-pyrrolo[2,3-d]pyrimidine-5-carbonitrile] | < 100 | 301 to 1000 | 301 to 1000 | < 100
CNc1nc(Nc2ccc(C(=O)N3CCOCC3)c3c2OCCO3)nc2[nH]ccc12 [Example 43, (8-((4-(methylamino)-7H-pyrrolo[2,3-d]pyrimidin-2-yl)amino)-2,3-dihydrobenzo[b][1,4]dioxin-5-yl)(morpholino)methanone] | < 100 | 301 to 1000 | 301 to 1000 | < 100
O=C(c1ccc(Nc2nc(NC3CC3)c3c(C(F)(F)F)c[nH]c3n2)c2c1OCCO2)N1CCOCC1 [Example 182, (8-((4-(cyclopropylamino)-5-(trifluoromethyl)-7H-pyrrolo[2,3-d]pyrimidin-2-yl)amino)-2,3-dihydrobenzo[b][1,4]dioxin-5-yl)(morpholino)methanone] | < 100 | 301 to 1000 | 301 to 1000 | < 100
CCNc1nc(Nc2ccc(S(C)(=O)=O)cc2OC)nc2[nH]cc(C(F)(F)F)c12 [Example 159, N^4-ethyl-N^2-(2-methoxy-4-(methylsulfonyl)phenyl)-5-(trifluoromethyl)-7H-pyrrolo[2,3-d]pyrimidine-2,4-diamine] | 301 to 1000 | 301 to 1000 | 301 to 1000 | < 100
N#Cc1c[nH]c2nc(Nc3ccc(C(=O)N4CCOCC4)c4c3OCCO4)nc(NC3CC3)c12 [Example 124, 4-(cyclopropylamino)-2-((8-(morpholine-4-carbonyl)-2,3-dihydrobenzo[b][1,4]dioxin-5-yl)amino)-7H-pyrrolo[2,3-d]pyrimidine-5-carbonitrile] | < 100 | 101 to 300 | 101 to 300 | < 100
COCC(C)(C)Nc1nc(Nc2ccc(C(=O)N3CCOCC3)c3c2OCCO3)nc2[nH]cc(C(F)(F)F)c12 [Example 178, (8-((4-((1-methoxy-2-methylpropan-2-yl)amino)-5-(trifluoromethyl)-7H-pyrrolo[2,3-d]pyrimidin-2-yl)amino)-2,3-dihydrobenzo[b][1,4]dioxin-5-yl)(morpholino)methanone] | < 100 | 301 to 1000 | 301 to 1000 | < 100
COCCNc1nc(Nc2ccc(S(=O)(=O)N3CCOCC3)cc2OC)nc2[nH]ccc12 [Example 19, N^2-(2-methoxy-4-(morpholinosulfonyl)phenyl)-N^4-(2-methoxyethyl)-7H-pyrrolo[2,3-d]pyrimidine-2,4-diamine] | < 100 | 301 to 1000 | 301 to 1000 | < 100
CNc1nc(Nc2ccc(S(=O)(=O)N3CCC(N4CCOCC4)CC3)cc2OC)nc2[nH]cc(C#N)c12 [Example 81, 2-((2-methoxy-4-((4-morpholinopiperidin-1-yl)sulfonyl)phenyl)amino)-4-(methylamino)-7H-pyrrolo[2,3-d]pyrimidine-5-carbonitrile] | < 100 | < 100 | 301 to 1000 | < 100
N#Cc1c[nH]c2nc(Nc3ccc(C(=O)N4CCC(N5CCOCC5)CC4)c4c3OCCO4)nc(NC3CCC3)c12 [Example 259, 4-(cyclobutylamino)-2-((8-(4-morpholinopiperidine-1-carbonyl)-2,3-dihydrobenzo[b][1,4]dioxin-5-yl)amino)-7H-pyrrolo[2,3-d]pyrimidine-5-carbonitrile] | < 100 | < 100 | 101 to 300 | < 100
COc1cc(S(C)(=O)=O)ccc1Nc1nc(NC(C)C)c2c(C#N)c[nH]c2n1 [Example 101, 4-(isopropylamino)-2-((2-methoxy-4-(methylsulfonyl)phenyl)amino)-7H-pyrrolo[2,3-d]pyrimidine-5-carbonitrile] | < 100 | 301 to 1000 | 301 to 1000 | < 100
